This test has as its target Nuclear receptor subfamily 1 group D member 1 (Homo sapiens) (UniProt P20393). The test is described as follows: modulators of Rev-erb alpha DNA binding, dose response, biochemical, FITC-DNA, fluorescence polarization (AID 1259321). Background: Polarisation of emitted light reports the rotation of a fluorescent probe.

We go through 91 molecules from PubChem BioAssay AID1259321 (Sanford-Burnham Center for Chemical Genomics, 2017).

Active and inactive are the calls of the source.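 How the source made its calls: active means half-maximal concentration for changing protein binding to DNA, from the fitted dose curve, below 10 micromolar; inactive means the rest.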

For orientation: IC50 means the concentration at which inhibition is half-maximal.

Chain of Nuclear receptor subfamily 1 group D member 1 (Homo sapiens) (P20393 whole entry, looked up): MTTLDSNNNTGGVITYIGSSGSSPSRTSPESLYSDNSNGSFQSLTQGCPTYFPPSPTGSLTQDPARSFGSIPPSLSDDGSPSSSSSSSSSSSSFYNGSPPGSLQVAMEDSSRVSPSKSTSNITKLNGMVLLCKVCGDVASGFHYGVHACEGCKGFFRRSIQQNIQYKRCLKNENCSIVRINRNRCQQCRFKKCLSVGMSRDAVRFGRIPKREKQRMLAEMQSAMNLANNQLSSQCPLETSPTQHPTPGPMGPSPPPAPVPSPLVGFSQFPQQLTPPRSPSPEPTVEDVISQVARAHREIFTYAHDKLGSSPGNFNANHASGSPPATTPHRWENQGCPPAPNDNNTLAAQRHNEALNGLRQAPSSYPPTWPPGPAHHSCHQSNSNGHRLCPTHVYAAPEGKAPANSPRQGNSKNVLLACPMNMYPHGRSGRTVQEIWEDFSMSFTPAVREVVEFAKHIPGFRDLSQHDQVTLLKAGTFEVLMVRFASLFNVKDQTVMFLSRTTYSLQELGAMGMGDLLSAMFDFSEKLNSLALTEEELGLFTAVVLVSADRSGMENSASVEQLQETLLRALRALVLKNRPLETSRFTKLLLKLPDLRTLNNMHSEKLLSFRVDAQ

Turning to `CCN(CC(=O)NCc1ccc(Cl)cc1)C(=O)c1ccc2cc(OC)ccc2c1`, the IC50 was 4.52 µM.
With `Cc1cc(-c2csc3nc[nH]c(=S)c23)cc(C)c1C`, the half-inhibitory concentration (IC50) is 5.33 µM.
Turning to `COc1ccc(-c2c(C)nc(N)nc2-c2ccc(OCc3ccc(C)cc3)cc2O)cc1OC`, the IC50 is > 40 µM (inactive).
As to `CN1CCS/C1=C\C=C1/SC(=S)N(CC(=O)O)C1=O`, the IC50 result was “inactive”.
On to `O=C(CCSc1nnc2scc(-c3ccccc3)n12)Nc1nc(-c2ccccc2)ns1`, for which the IC50 result was “inactive”.
On to `CN1C(=O)C(=Cc2ccc(N3CCCCC3)o2)C(=O)N(C)C1=S`, for which the IC50 result was “inactive”.
With `Fc1cccc(CSc2ncnc3c2oc2ccccc23)c1` the figure was 2.38 µM; with `CCN(CC)c1ccc(/C=C(\C#N)C(=O)c2ccc(Br)cc2)cc1`, “inactive”; with `COc1ccccc1N=Nc1nc(-c2ccccc2)c(-c2ccccc2)[nH]1`, 0.465 µM.
With `CCCC1(c2ccccc2)NC(=O)N(CC(=O)Nc2sc(-c3ccccc3)cc2C(=O)OCC)C1=O` (stereo unspecified) the entry was “inactive”; with `COc1ccc(C2C(C#N)=C(C)NC3=C2C(=O)c2ccccc23)cc1` (stereo unspecified), “inactive”.
Turning to `COc1cccc(Nc2nc(-c3ccccc3O)nc3ccccc23)c1`, the IC50 was 9.08 µM.
With `CCOC(=O)Cn1c(=NC(=O)c2cccs2)sc2cc(C(=O)OC)ccc21`, the IC50 result was “inactive”.
As for `COc1cc(-c2nn3c(COc4ccccc4)nnc3s2)cc(OC)c1OC`, the IC50 is 2.99 µM.
With `COc1ccc(-c2nn(C)c3sc(C(=O)NCc4ccco4)cc23)cc1OC`, the IC50 is > 40 µM (inactive).
With `COc1ccc2nc(SCC(=O)NC3CCCC3)c(C)cc2c1`, the IC50 was 4.48 µM.
`C/C(N)=C(/C#N)C(=O)CSc1nc2ccccc2c(=O)n1-c1ccc(C)c(Cl)c1`: the IC50 is > 40 µM (inactive).
With `Nc1ccc2c3c(cccc13)C(=O)N(c1ccccc1)C2=O` the entry was “inactive”.
Under `COc1cc(OC)cc(-c2c(Sc3ccccc3)c3cc(-c4ccc(OC)c(F)c4)ccc3n2C)c1` stands 1.33 µM; under `CCOC(=O)c1cc2c(=O)c3ccccc3oc2nc1C`, > 40 µM (inactive); under `COc1ccc(/C=C2/SC(=O)N(CCC(=O)Nc3ccccc3)C2=O)cc1OC`, 9.31 µM.
As to `CN1CCS/C1=C/C=C1/SC(=S)N(Cc2ccccc2)C1=O`, the IC50 entry is “inactive”.
With `COc1cccc(-c2nc(CS(=O)(=O)CC(=O)NCCCc3ccccc3)c(C)o2)c1` the figure was 7.77 µM; with `O=C(CSc1nnc(-c2ccncc2)n1-c1ccc(Cl)cc1)c1ccc(Cl)c(Cl)c1`, 0.278 µM.
`CCN1C(=O)/C(=C/c2ccc(N3CCCC3)cc2)NC1=S`: the concentration for half-maximal inhibition (IC50) was 1.14 µM.
On to `CCN(CC)c1ccc(C=C2SC(=S)NC2=O)cc1`, for which the IC50 is 6.72 µM.
On to `Cc1ccc(-n2c(N)c(C#N)c(-c3ccccc3)c(C#N)c2=O)cc1`, for which the IC50 was > 40 µM (inactive).
As to `CSc1nnc2c3cc(F)ccc3n(Cc3ccccc3)c2n1`, the IC50 is 7.93 µM.
`COc1ccc(C(=O)NC(=S)Nc2ccc3[nH]c(=O)[nH]c3c2)c(OC)c1`: the IC50 was > 40 µM (inactive).
As to `Cc1nc(NC(=O)c2cncc(Br)c2)ccc1Br`, the IC50 entry is “inactive”.
Consider `O=c1c2ccccc2n2c(-c3ccc(F)cc3)nnc2n1Cc1ccccc1`, for which the IC50 result was “inactive”.
In the case of `COc1cccc(-n2c([S-])c(C(=O)Nc3ccc(S(=O)(=O)N4CCOCC4)cc3)[n+]3cc(C(N)=O)ccc23)c1`, the IC50 was > 40 µM (inactive).
As for `COc1cc(OC)cc(-n2c3nc4ccccc4nc3c3c(=O)n(CC4CCCO4)cnc32)c1` (stereo unspecified), the IC50 is 4.12 µM.
`Cc1cc(C)c(NC(=O)CSc2nc3ncc(Br)cc3[nH]2)c(Cl)c1`: the concentration for half-maximal inhibition (IC50) was 6.22 µM.
`O=C(N=c1ccn(-c2nc3ccccc3nc2NS(=O)(=O)c2ccc(Cl)cc2)cc1)c1cccs1`: the IC50 was > 40 µM (inactive).
For the molecule `COc1ccc(C#Cc2ccc(C3=CC(=O)CC(C)(C)C3=O)cc2)cc1`, the IC50 is 0.472 µM.
With `COc1cccc(CNC(=O)CCCn2c(=S)[nH]c3cc4c(cc3c2=O)OCO4)c1` the figure was 0.616 µM; with `N#Cc1c(N)nc2c3c(sc(=N)c2c1N)NC(=O)CC3c1c(F)cccc1Cl` (stereo unspecified), 0.78 µM; with `COc1ccc(C(=O)Nc2ccccc2C(=O)Nc2ccccc2)cc1`, 6.74 µM.
For the molecule `CC1=NCCN1S(=O)(=O)c1c(C(C)C)cc(C(C)C)cc1C(C)C`, the IC50 was > 40 µM (inactive).
As to `COc1ccc(Cl)cc1C(=O)Nc1cccc(-c2ccc3nncn3n2)c1`, the IC50 was 7.26 µM.
Under `N#C/C(=C(/O)C(Cl)c1ccccc1)c1nc2ccccc2s1` (stereo unspecified) stands 5.7 µM; under `CCOc1ccc(CCNC(=O)c2cc(-c3ccccc3)c(N3CCOCC3)s2)cc1`, 4.5 µM; under `COc1ccccc1NC(=O)c1oc2ccccc2c1NC(=O)c1cc(OC)c(OC)c(OC)c1`, 4.77 µM.
In the case of `CCOc1ccc2nc(N/C(N)=N/C(=S)Nc3cccc(C)c3)nc(C)c2c1`, the IC50 was 8.37 µM.
With `CCN(c1ccccc1C)S(=O)(=O)c1cc2c3c(c1)CCC(=O)N3CCC2` the figure was > 40 µM (inactive).
Take `COc1ccccc1C(=O)Nc1nnc(-c2ccc(F)cc2)s1`: the IC50 is 3.13 µM.
Consider `Cc1cc(Br)ccc1NC(=O)c1sc2ncn(CC(=O)N3CCN(c4ccccn4)CC3)c(=O)c2c1C`, for which the IC50 was 5.34 µM.
As for `COc1ccccc1N/C(N)=N/c1nc(CSc2ccc(C)cc2)cc(=O)[nH]1`, the IC50 was 4.19 µM.
For `COc1ccccc1NC(=O)c1sc(NC(=O)c2ccco2)c(C#N)c1C`, the IC50 was 3.15 µM.
For the molecule `CC1(Cc2ccccc2OC(F)(F)F)C(=O)Nc2ccc(-c3ccsc3)cc21` (stereo unspecified), the half-inhibitory concentration (IC50) was 1.7 µM.
With `O=C(O)CN1C(=O)/C(=C\c2cn(CC(=O)N3CCOCC3)c3ccccc23)SC1=S` the figure was 9.92 µM; with `CSc1ccc(SC2CN(Cc3ccc(C)cc3)S(=O)(=O)C2)cc1` (stereo unspecified), “inactive”; with `N#Cc1c(-c2ccc(F)cc2)cc(C2CC2)nc1SCC(=O)c1cccs1`, > 40 µM (inactive).
As to `COc1cc(OC)cc(-c2c(Sc3ccccc3)c3cc(-c4ccc(SC)cc4)ccc3n2C)c1`, the IC50 was 5.97 µM.
Under `CCOC(=O)c1sc(NC(=O)c2ccc(S(=O)(=O)N(C)C)cc2)nc1C` stands “inactive”.
For `COc1cccc(NC(=O)CSc2nc3ncc(Br)cc3[nH]2)c1`, the concentration for half-maximal inhibition (IC50) was 1.3 µM.
`CC1(Cc2ccccc2Cl)C(=O)Nc2ccc(OC(F)(F)F)cc21` (stereo unspecified): the IC50 is 6.25 µM.
On to `Cc1c(Br)ccc(NC(=O)Cn2nc(-c3cccs3)ccc2=O)c1C`, for which the IC50 was 4.84 µM.
With `Cn1c(=O)c2c(nc(SCC(=O)c3cccs3)n2Cc2ccc(F)cc2)n(C)c1=O`, the IC50 was > 40 µM (inactive).
As to `N#Cc1cnc2cc(-c3ccccc3)nn2c1N`, the IC50 is 3.52 µM.
With `COc1cc(C=Cc2nnc3c4ccccc4cnn23)cc(OC)c1OC` the entry was “inactive”; with `Cc1cc(OC(C)C(=O)NCc2cccnc2)c2c(C)c(Cc3ccccc3)c(=O)oc2c1` (stereo unspecified), “inactive”; with `CCc1cc2cc(C)ccc2nc1SCC(=O)NC1CCCC1`, 3.66 µM.
Take `O=C(Nc1ccccc1C(F)(F)F)OCCN1C(=O)CCC12CCC(c1ccccc1)CC2` (stereo unspecified): the half-maximal inhibitory concentration (IC50) was 7.99 µM.
Consider `O=S(=O)(c1ccc2nc(N3CCN(c4ccccc4)CC3)ccc2c1)N1CCCCC1`, for which the IC50 entry is “inactive”.
`COCCn1c(=NC(=O)c2ccco2)sc2cc(C(=O)OC)ccc21`: the IC50 is 4.87 µM.
Turning to `COc1ccc(C(=O)Nc2nc3ccc4nc(C)sc4c3s2)cc1`, the IC50 is 9.47 µM.
On to `N#Cc1ccccc1N1CCN(C(=O)C2CCN(c3ncnc4c3sc3cccc(F)c34)CC2)CC1`, for which the IC50 is 4.47 µM.
Under `C=CCNC(=O)c1ccc(Cn2c(=S)[nH]c3cc4c(cc3c2=O)OCO4)cc1` stands “inactive”.
Take `CCOC(=O)C(C)Sc1cc(CS(=O)(=O)c2ccccc2)nc(-c2ccccc2)n1` (stereo unspecified): the IC50 is > 40 µM (inactive).
With `COc1cc(C(=O)Nc2nc(-c3ccc(Cl)cc3)c(C)s2)ccc1OCC(=O)Nc1ccc(F)cc1` the figure was > 40 µM (inactive); with `Cc1nn(-c2ccc(Cl)cc2)c2sc(C(=O)c3c(N)n(C)c(=O)n(C)c3=O)cc12`, 8.34 µM.
As to `COC(=O)c1ccccc1NC(=O)c1cn(-c2ccc(C)c(C)c2)c(=O)c2ccccc12`, the IC50 entry is “inactive”.
Turning to `Nc1ccc2nc3c(=O)n(C4CCCCC4)c(=O)[nH]c3nc2c1`, the IC50 is 6.28 µM.
As to `Cc1ccc(-n2nc3c(N4CCC(C(=O)NCCc5cccs5)CC4)nnc(C)c3c2C)cc1`, the IC50 is 6.89 µM.
Take `CC(=O)Oc1ccc(/C=N\NC(=O)c2cc3c(ccc4ccccc43)o2)cc1`: the IC50 entry is “inactive”.
With `O=C1c2cccc3c(N4CCCCC4)ccc(c23)C(=O)N1c1ccccc1O`, the IC50 is 5.32 µM.
As for `Cc1cc(C)c2cc(C#N)c(SCC(=O)Nc3cc(C)on3)nc2c1`, the IC50 was 7.32 µM.
With `CCc1cc2cc3c(cc2nc1SCC(=O)Nc1nccs1)OCO3` the figure was > 40 µM (inactive).
On to `COc1ccc(NC(=O)CSc2nc(-c3ccc(C)cc3)cc(C(F)(F)F)c2C#N)cc1`, for which the 50% inhibitory concentration (IC50) was 0.675 µM.
Regarding `OCC[n+]1ccc(/C=C/c2c[nH]c3ccccc23)cc1`, the IC50 is > 40 µM (inactive).
For `Cc1ccc(-c2nc3c(c(=O)c4ccccc4n3C)c(=O)n2-c2ccc(F)cc2)cc1`, the IC50 is > 40 µM (inactive).
With `Fc1c(F)c(C(F)(F)F)c(F)c(F)c1N1CCN(c2ccc3nnc(C(F)(F)F)n3n2)CC1`, the IC50 was 1.71 µM.
Consider `N#CCNC(=O)c1nn2c(C(F)(F)F)cc(-c3ccccc3)nc2c1Br`, for which the IC50 was 3.58 µM.
`CN1C(=O)CSC1=NCC12CC3CC(CC(C3)C1)C2`: the IC50 was 5.32 µM.
Take `Fc1cnc(N2CCc3ccccc32)nc1N1CCc2ccccc21`: the IC50 is 3.22 µM.
As for `Cc1ccc(OCC(=O)Nc2ccc(O)c(-c3nc4ccccc4o3)c2)cc1`, the IC50 was > 40 µM (inactive).
With `COC(=O)Cn1cc(/C=C/c2cc[n+](C)cc2)c2ccccc21` the entry was “inactive”; with `CCOC(=O)c1nn(-c2ccc(F)cc2)c(=O)cc1OCC(=O)Nc1cccc(C)c1`, 9.68 µM; with `N#Cc1c(N)nc(Sc2ccc(Cl)cc2)c(C#N)c1-c1ccccc1Cl`, 6.32 µM.
